Measurements reported in PubChem BioAssay (NCI).
Where “and” joins values, the source holds several entries; their conditions need not be identical. Equal values may be shown once.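 In this assay, cells in 96-well plates receive the compound at five concentrations for 48 hours. Endpoints are linearly interpolated between the surrounding concentrations. At the GI50, growth is halved. TGI: total growth inhibition.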

Tests used:
Experiment in all cases: NCI anticancer screen, dose series, 48 h
ACHN renal = system: ACHN renal
LOX IMVI melanoma = system: LOX IMVI melanoma
M14 melanoma = system: M14 melanoma
MDA-MB-231 breast = system: MDA-MB-231 breast
MOLT-4 leukemia = system: MOLT-4 leukemia
NCI-H226 lung = system: NCI-H226 lung
T-47D breast = system: T-47D breast
U251 CNS = system: U251 CNS
UACC-257 melanoma = system: UACC-257 melanoma
UO-31 renal = system: UO-31 renal

Structure (SMILES) | GI50 (ACHN renal) | TGI (ACHN renal) | GI50 (LOX IMVI melanoma) | TGI (LOX IMVI melanoma) | GI50 (M14 melanoma) | TGI (M14 melanoma) | GI50 (MDA-MB-231 breast) | TGI (MDA-MB-231 breast) | GI50 (MOLT-4 leukemia) | TGI (MOLT-4 leukemia) | GI50 (NCI-H226 lung) | TGI (NCI-H226 lung) | GI50 (T-47D breast) | TGI (T-47D breast) | GI50 (U251 CNS) | TGI (U251 CNS) | GI50 (UACC-257 melanoma) | TGI (UACC-257 melanoma) | GI50 (UO-31 renal) | TGI (UO-31 renal)
Nc1ccccc1SC(CC(=O)c1ccccc1)c1c(Cl)cccc1Cl (configuration not stated) | 2.16 µM | 5.6 µM | 1.59 µM | 3.2 µM | 3.25 µM | 12.9 µM | 3.86 µM | 20.4 µM | 3 µM | 7.79 µM | 14.9 µM | 40.6 µM | 2.81 µM | 13.4 µM | 4.24 µM | 15.3 µM | 14.6 µM | 28.6 µM | 1.27 µM | 4.64 µM
O=C(O)CC(CC(=O)O)n1cccc1 | – | > 100 µM | – | > 100 µM | – | > 100 µM | – | > 100 µM | – | > 100 µM | – | > 100 µM | – | > 100 µM | – | > 100 µM | – | > 100 µM | – | > 100 µM
CN(C)Cc1c[nH]c2nc[nH]c(=O)c12 | – | > 100 µM | – | 40.9 µM | – | > 100 µM | – | > 100 µM | – | 24.7 µM | – | > 100 µM | – | > 100 µM | – | > 100 µM | – | 52 µM | – | > 100 µM
COc1ccc(/C(=N/O)c2cc(F)c(F)c(OC)c2F)cc1O | 0.94 µM | > 100 µM | 0.605 µM | > 100 µM | 0.344 µM | > 100 µM | 2.46 µM | > 100 µM | 0.43 µM | 30 µM | 15.8 µM | > 100 µM | 0.53 µM | 72.4 µM | 0.634 µM | > 100 µM | – | – | 1.36 µM | 90.9 µM
O=C1C=CC(=O)N1c1ccc2ccccc2c1 | 4.66 µM | 15.4 µM | 16.4 µM | 31.3 µM | 14.5 µM | 28.4 µM | 16.1 µM | 33 µM | 4.49 µM | 34.9 µM | 16.8 µM | 33.3 µM | 3.73 µM | 14.7 µM | 17.8 µM | 33.8 µM | 10.5 µM | 22.7 µM | 12.4 µM | 25.1 µM
C=CC(=O)N1CCN(c2nc(OC[C@@H]3CCCN3C)nc3c(F)c(-c4nc(N)cc(C)c4C(F)(F)F)c(Cl)cc23)[C@@H](C)C1 | 3.41 µM | 12.6 µM | 1.6 µM | 3.02 µM | 1.85 µM | 3.57 µM | 1.74 µM | 3.27 µM | 1.91 µM | 7.63 µM | 1.88 µM | 4.52 µM | 2.14 µM | 7.17 µM | 1.96 µM | 5.05 µM | 1.57 µM | 3 µM | 1.92 µM | 5.01 µM
Cc1nc2sc(C(=O)Nc3cccc4c3OCCO4)c(N)c2cc1C(C)O (configuration not stated) | 5.54 µM | > 100 µM | 5.26 µM | > 100 µM | 3.01 µM | > 100 µM | 36.3 µM | > 100 µM | 4.97 µM | > 100 µM | > 100 µM | > 100 µM | 5.33 µM | > 100 µM | 4.66 µM | > 100 µM | – | – | 7.3 µM | > 100 µM
O=C(N/N=C/c1coc2ccc(Cl)cc2c1=O)c1cc(O)c(O)c(O)c1 | 22.1 µM | 52.5 µM | 22.5 µM | 56.6 µM | 19.3 µM | 47 µM | 19.3 µM | 45 µM | 13.7 µM | 61.6 µM | 26.1 µM | 68.4 µM | > 100 µM | > 100 µM | 22.2 µM | 57.2 µM | 39.9 µM | > 100 µM | 40 µM | > 100 µM
O=C1c2ccccc2-n2c1nc1ccc([N+](=O)[O-])cc1c2=O | – | > 100 µM | – | 51.7 µM | – | > 100 µM | – | > 100 µM | – | > 100 µM | – | > 100 µM | – | > 100 µM | – | > 100 µM | – | > 100 µM | – | > 100 µM
O=C1c2c[n+](Cc3ccccc3)ccc2-c2nc3ccccc3c3ccnc1c23 | 0.196 µM | 33.3 µM | 0.583 µM | 2.02 µM | 0.208 µM | 0.969 µM | 0.711 µM | 3.21 µM | 0.719 µM | 1.89 µM | 0.537 µM | 3.07 µM | 0.648 µM | 1.7 µM | 0.541 µM | 1.64 µM | 0.865 µM | 2.33 µM | 0.756 µM | 17 µM
O=NN(CC(=O)NNc1ccccc1)CC(=O)NNc1ccccc1 | – | > 100 µM | 1.22 µM | > 100 µM | 3.8 µM | > 100 µM | 3.54 µM | > 100 µM | 4.04 µM | > 100 µM | > 100 µM | > 100 µM | 6.1 µM | > 100 µM | > 100 µM | > 100 µM | 22.4 µM | > 100 µM | 2.22 µM | > 100 µM
O=C1/C(=C/c2ccccc2)CN(C(=O)/C=C/c2ccccc2)C/C1=C\c1ccccc1 | – | 38.5 µM | – | 7.1 µM | – | 12.8 µM | – | 10.9 µM | – | 35.4 µM | – | 60.6 µM | – | 15.1 µM | – | 7.37 µM | – | 37 µM | – | 20.6 µM
Cc1ncc2c(n1)CCC1=C2OS(=O)(=O)CC1N(C)C (configuration not stated) | – | > 100 µM | – | > 100 µM | – | > 100 µM | – | > 100 µM | – | > 100 µM | – | > 100 µM | – | > 100 µM | – | > 100 µM | – | > 100 µM | – | > 100 µM
CCn1cnc(C[C@H](NC(=O)[C@@H](NC(=O)Nc2cc(C(F)(F)F)cc(C(F)(F)F)c2)C(C)(C)C)C(=O)OC)c1 | > 10 µM | > 10 µM | > 10 µM | > 10 µM | > 10 µM | > 10 µM | > 10 µM | > 10 µM | > 10 µM | > 10 µM | > 10 µM | > 10 µM | > 10 µM | > 10 µM | > 10 µM | > 10 µM | > 10 µM | > 10 µM | > 10 µM | > 10 µM
CC(C)C[C@H](NC(=O)[C@@H](N)Cc1cccc2ccccc12)B(O)O | < 0.01 µM | 50 µM and > 100 µM | 0.184 µM | – | 0.206 µM and 0.0374 µM | – | 0.798 µM | – | 0.21 µM | – | – | < 0.0186 µM | 0.432 µM | – | 0.392 µM | – | 0.315 µM | 1.12 µM and 0.114 µM | 0.739 µM | –
